# Assay results from US20260248787A9, “MEDICAMENT FOR TREATING CANCER COMPRISING OPTICALLY ACTIVE AZABICYCLO RING DERIVATIVE” (Sumitomo Pharma Co., Ltd., priority 2023, published 2026).
# Where two headings read alike, the source gives them in different places.
# Test: Phase 1/2 clinical study, plasma pharmacokinetic evaluation
# Type: in vivo, human
# Conditions: for time of maximum concentration: after dosing; for AUC(0-t) / Cmax / Tmax / half-life: human, plasma, oral; for half-life: read-out: t1/2 (converted)
# Description: In the present test of the present compound, PK samples have been collected in up to 24 patients dosed in dose groups of 40, 80, 100, and 120 mg BID Arm A, and in dose groups of 40 and 60 mg BID Arm B (Table 6). Large preliminary PK inter-patient variability was observed.
# (1) In the present study, PK samples have been collected in up to 42 patients dosed in dose groups of 40, 80, 100, 120, 140 and 200 mg BID Arm A, and in dose groups of 40, 60, 100, and 200 mg BID Arm B (Table 15).
# (2) In the present study, PK samples have been collected in patients dosed in dose groups of 40, 80, 100, 120, 140, 200, and 300 mg BID Arm A, and in dose groups of 40, 60, 100, 200, and 300 mg BID Arm B (Table 16).
# [1] = 40 mg, 40 mg BID Arm A, C1D1, N=2, mean
# [2] = 40 mg, 40 mg BID Arm A, C2D1, N=1
# [3] = 40 mg, 40 mg BID Arm B, C1D1, N=4, mean
# [4] = 40 mg, 40 mg BID Arm B, C2D1, N=2, mean
# [5] = 40 mg, Cycle 1 Day 1, 40 mg BID Arm A (without azole), N=2, mean
# [6] = 40 mg, Cycle 1 Day 1, 40 mg BID Arm B (with azole), N=4, mean
# [7] = 40 mg, Cycle 2 Day 1, 40 mg BID Arm A (without azole), N=1
# [8] = 40 mg, Cycle 2 Day 1, 40 mg BID Arm B (with azole), N=2, mean
# [9] = 40 mg, Table 15 cut-off, 40 mg BID Arm A, Cycle 1 Day 1, N=2, mean
# [10] = 40 mg, Table 15 cut-off, 40 mg BID Arm A, Cycle 2 Day 1, N=1
# [11] = 40 mg, Table 15 cut-off, 40 mg BID Arm B, Cycle 1 Day 1, N=4, mean
# [12] = 40 mg, Table 15 cut-off, 40 mg BID Arm B, Cycle 2 Day 1, N=2, mean
# [13] = 60 mg, 60 mg BID Arm B, C1D1, N=6, mean
# [14] = 60 mg, 60 mg BID Arm B, C2D1, N=4, mean
# [15] = 60 mg, Cycle 1 Day 1, 60 mg BID Arm B (with azole), N=6, mean
# [16] = 60 mg, Cycle 2 Day 1, 60 mg BID Arm B (with azole), N=4, mean
# [17] = 60 mg, Table 15 cut-off, 60 mg BID Arm B, Cycle 1 Day 1, N=6, mean
# [18] = 60 mg, Table 15 cut-off, 60 mg BID Arm B, Cycle 2 Day 1, N=4, mean
# [19] = 80 mg, 80 mg BID Arm A, C1D1, N=4, mean
# [20] = 80 mg, 80 mg BID Arm A, C2D1, N=2, mean
# [21] = 80 mg, Cycle 1 Day 1, 80 mg BID Arm A (without azole), N=4, mean
# [22] = 80 mg, Cycle 2 Day 1, 80 mg BID Arm A (without azole), N=2, mean
# [23] = 80 mg, Table 15 cut-off, 80 mg BID Arm A, Cycle 1 Day 1, N=4, mean
# [24] = 80 mg, Table 15 cut-off, 80 mg BID Arm A, Cycle 2 Day 1, N=2, mean
# [25] = 100 mg, 100 mg BID Arm A, C1D1, N=2, mean
structure (smiles),measurement,setting,value
"C=C1C[C@@H]2CC[C@H]1[C@@H](C(=O)N1CCC3(CC1)CN(c1ncncc1Oc1ccc(F)cc1C(=O)N(C(C)C)C(C)C)C3)N2 [the present compound, 5-fluoro-2-[(4-{7-[(1S,3S,4R)-5-methylidene-2-azabicyclo[2.2.2]octane-3-carbonyl]-2,7-diazaspiro[3.5]nonan-2-yl}pyrimidin-5-yl)oxy]-N,N-di(propan-2-yl)benzamide]",drug accumulation with repeat dosing,40-200 mg BID cut-off,minimal drug accumulation
same,effect of azoles on the exposure,40-200 mg BID cut-off,do not have a large effect
same,exposure versus dose,40-200 mg BID cut-off,Dose-dependent increases in exposures
same,drug accumulation with repeat dosing,40-300 mg BID cut-off,minimal drug accumulation
same,effect of azoles on the exposure,40-300 mg BID cut-off,do not have a large effect
same,exposure versus dose,40-300 mg BID cut-off,Dose-dependent increases in exposures
same,exposure versus dose,"Arm A, 40, 80, 100, 120 mg BID",a trend of dose-related increased in exposures
same,impact of azoles on the exposure,"Arm B compared with Arm A, first cut-off",do not have a large or dramatic impact
same,drug accumulation with repeat dosing,"Cycle 2 Day 1 vs Cycle 1 Day 1, first cut-off",minimal to no drug accumulation
same,accumulation with repeat dosing,FIGS. 4A to 4D cut-off,minimal accumulation
same,large drug-drug interaction (>~2-fold) with azoles,FIGS. 4A to 4D cut-off,has not identified
same,time of maximum concentration,40-200 mg BID cut-off,≤ 2 h
same,time of maximum concentration,40-300 mg BID cut-off,≤ 2 h
same,exposure versus dose,"doses ≥140 mg BID, FIGS. 4A to 4D cut-off",Dose-related increases in exposures
same,AUC(0-t),[1],3920 ng·h/mL
same,Cmax,[1],1160 ng/mL
same,Tmax,[1],1.25 h
same,half-life,[1],3.35 h
same,AUC(0-t),[2],4710 ng·h/mL
same,Cmax,[2],772 ng/mL
same,Tmax,[2],2 h
same,half-life,[2],4.57 h
same,AUC(0-t),[3],3270 ng·h/mL
same,Cmax,[3],976 ng/mL
same,Tmax,[3],0.625 h
same,half-life,[3],4.41 h
same,AUC(0-t),[4],5330 ng·h/mL
same,Cmax,[4],987 ng/mL
same,Tmax,[4],1.25 h
same,half-life,[4],7.29 h
same,AUC(0-t),[5],3960 ng·h/mL
same,Cmax,[5],1160 ng/mL
same,AUC(0-t),[6],3270 ng·h/mL
same,Cmax,[6],976 ng/mL
same,AUC(0-t),[7],4730 ng·h/mL
same,Cmax,[7],772 ng/mL
same,AUC(0-t),[8],5330 ng·h/mL
same,Cmax,[8],987 ng/mL
same,AUC(0-t),[9],3960 ng·h/mL
same,Cmax,[9],1160 ng/mL
same,AUC(0-t),[10],4730 ng·h/mL
same,Cmax,[10],772 ng/mL
same,AUC(0-t),[11],3270 ng·h/mL
same,Cmax,[11],976 ng/mL
same,AUC(0-t),[12],5330 ng·h/mL
same,Cmax,[12],987 ng/mL
same,AUC(0-t),[13],4140 ng·h/mL
same,Cmax,[13],1170 ng/mL
same,Tmax,[13],1.08 h
same,half-life,[13],2.61 h
same,AUC(0-t),[14],2610 ng·h/mL
same,Cmax,[14],703 ng/mL
same,Tmax,[14],0.75 h
same,half-life,[14],3.19 h
same,AUC(0-t),[15],4240 ng·h/mL
same,Cmax,[15],1170 ng/mL
same,AUC(0-t),[16],2690 ng·h/mL
same,Cmax,[16],751 ng/mL
same,AUC(0-t),[17],4240 ng·h/mL
same,Cmax,[17],1170 ng/mL
same,AUC(0-t),[18],2690 ng·h/mL
same,Cmax,[18],751 ng/mL
same,AUC(0-t),[19],5150 ng·h/mL
same,Cmax,[19],1620 ng/mL
same,Tmax,[19],1.25 h
same,half-life,[19],2.82 h
same,AUC(0-t),[20],2900 ng·h/mL
same,Cmax,[20],1400 ng/mL
same,Tmax,[20],0.75 h
same,half-life,[20],3.4 h
same,AUC(0-t),[21],5110 ng·h/mL
same,Cmax,[21],1620 ng/mL
same,AUC(0-t),[22],2900 ng·h/mL
same,Cmax,[22],1400 ng/mL
same,AUC(0-t),[23],5110 ng·h/mL
same,Cmax,[23],1620 ng/mL
same,AUC(0-t),[24],2900 ng·h/mL
same,Cmax,[24],1400 ng/mL
same,AUC(0-t),[25],4940 ng·h/mL
same,Cmax,[25],1380 ng/mL
